Assay: itch prevention effect experiment (somesthetic testing, powder applied to the skin over the whole body)
Type: in vivo, examinees (male: 2, female: 1)
Details: for proportion of itch: itches without application set to 100, climbing/running 100 times, eight hours from test start; for itch removal / itch prevention effect bodily sensed: somesthetic testing, result in words
Method: Purpose of Experiment The fine powder of the aluminum chloride hexahydrate and the cyclodextrin (referred to as the CD) were each used alone for application to the skin over the whole body. From the result, whether the itch prevention effect was able to be bodily sensed or not was determined through somesthetic testing.
Participated Examinees three (male: 2, female: 1)
Testing Method Fine powder compositions of Experiment 1 to Experiment 3 were applied to the skin over the whole body. The climbing of a low mountain (altitude: 300 to 400 m) of 2 to 20 km and running of 2 to 15 km were executed 100 times appropriately for all seasons and for two years with the respective samples. Whether the itch was clearly removed or not and the appearance of the itch was able to be prevented or not were measured setting eight hours from the test start as terminal time. During the period, the somesthetic testing was conducted for determination. The total count of itches developed without application of various kinds of fine powder agents to the skin over the whole body (the head, the face, the body, and the entire feet) was set to 100. The degree of the itch was indicated by a “proportion of itch.”

| Compound | proportion of itch [%] | itch removal / itch prevention effect bodily sensed |
| --- | --- | --- |
| OC[C@H]1O[C@@H]2O[C@H]3[C@H](O)[C@@H](O)[C@@H](O[C@H]4[C@H](O)[C@@H](O)[C@@H](O[C@H]5[C@H](O)[C@@H](O)[C@@H](O[C@H]6[C@H](O)[C@@H](O)[C@@H](O[C@H]7[C@H](O)[C@@H](O)[C@@H](O[C@H]1[C@H](O)[C@H]2O)O[C@@H]7CO)O[C@@H]6CO)O[C@@H]5CO)O[C@@H]4CO)O[C@@H]3CO [α-CD] | 100 | The itch was not removed |
| OC[C@H]1O[C@@H]2O[C@H]3[C@H](O)[C@@H](O)[C@@H](O[C@H]4[C@H](O)[C@@H](O)[C@@H](O[C@H]5[C@H](O)[C@@H](O)[C@@H](O[C@H]6[C@H](O)[C@@H](O)[C@@H](O[C@H]7[C@H](O)[C@@H](O)[C@@H](O[C@H]8[C@H](O)[C@@H](O)[C@@H](O[C@H]1[C@H](O)[C@H]2O)O[C@@H]8CO)O[C@@H]7CO)O[C@@H]6CO)O[C@@H]5CO)O[C@@H]4CO)O[C@@H]3CO [β-CD] | 100 | the itch prevention effect was not able to be bodily sensed |
| OC[C@H]1O[C@@H]2O[C@H]3[C@H](O)[C@@H](O)[C@@H](O[C@H]4[C@H](O)[C@@H](O)[C@@H](O[C@H]5[C@H](O)[C@@H](O)[C@@H](O[C@H]6[C@H](O)[C@@H](O)[C@@H](O[C@H]7[C@H](O)[C@@H](O)[C@@H](O[C@H]8[C@H](O)[C@@H](O)[C@@H](O[C@H]9[C@H](O)[C@@H](O)[C@@H](O[C@H]1[C@H](O)[C@H]2O)O[C@@H]9CO)O[C@@H]8CO)O[C@@H]7CO)O[C@@H]6CO)O[C@@H]5CO)O[C@@H]4CO)O[C@@H]3CO [γ-CD] | 100 | the itch prevention effect was not able to be bodily sensed |

Source: patent US20160015637A1, “ANTI-ITCHING POWDER” (Lilac Laboratory Co., Ltd., priority 2014, published 2016)
